# Article PMC11747885, “Potent inhibitors of the human RNA ligase Rlig1 highlights its role in RNA integrity maintenance under oxidative cellular stress” (Chemical Science, 2025)
# Several values for one entry are separate records, joined by “and”; a condition that tells them apart may be missing. Equal entries are not always repeated. Where two headings read alike, the source gives them in different places.
# Experiments:
# [1] = target: T1, Rlig1-AMP (Homo sapiens, UniProt Q8N999); experiment: FRET-based high-throughput screening of inhibitors for Rlig1-AMP; type: biochemical; conditions: for 1-D Distance: difference of raw data w/o and w enzyme; for Raw data [w Enyzm]: with enzyme; for Raw data [w/o Enzym]: without enzyme
# T1 construct: made in house; host or cells: E. coli BL21 (DE3), pET15b-Rlig1
# [2] = target: factor IXaβ (FIXa); set-up: method as in MedChemExpress [1][2][3]; conditions: ref MedChemExpress [1][2][3]; cited from earlier work
# [3] = test system: FAAH; set-up: method as in MedChemExpress; conditions: mouse FAAH; ref MedChemExpress; cited from earlier work
# [4] = test system: FAAH; set-up: method as in MedChemExpress; conditions: rat FAAH; ref MedChemExpress; cited from earlier work
# [5] = test system: FAAH; set-up: method as in MedChemExpress; conditions: human FAAH; ref MedChemExpress; cited from earlier work
# [6] = in DMSO; ref MedChemExpress; cited from earlier work
# [7] = test system: TLR4 signaling; set-up: method as in MedChemExpress [1][2][3]; conditions: ref MedChemExpress [1][2][3]; cited from earlier work
# [8] = target: Insulin-like Growth Factor 1 Receptor (IGF1R); set-up: method as in MedChemExpress; conditions: ref MedChemExpress; cited from earlier work
# [9] = target: NTPDase 2; set-up: method as in MedChemExpress; conditions: ref MedChemExpress; cited from earlier work
# [10] = target: NTPDase 1 (CD39); set-up: method as in MedChemExpress; conditions: ref MedChemExpress; cited from earlier work
# [11] = target: NTPDase 3; set-up: method as in MedChemExpress; conditions: ref MedChemExpress; cited from earlier work
# [12] = test system: proton transport; set-up: method as in MedChemExpress; conditions: ref MedChemExpress; read-out: EC50, inhibition of proton transport; cited from earlier work
# [13] = target: Hsp90-TPR2A; set-up: method as in MedChemExpress; conditions: interaction of Hsp90-TPR2A; ref MedChemExpress; cited from earlier work
# [14] = test system: Dengue Fever virus; set-up: method as in MedChemExpress; conditions: ref MedChemExpress; cited from earlier work
# [15] = test system: Rift Valley virus; conditions: cited from earlier work
# [16] = test system: HIV-1; conditions: ref MedChemExpress; cited from earlier work
# [17] = test system: Ebola virus; conditions: cited from earlier work
# [18] = test system: HCV; set-up: method as in MedChemExpress; conditions: ref MedChemExpress; cited from earlier work
# [19] = test system: G9a; set-up: method as in MedChemExpress [1]; conditions: ref MedChemExpress [1]; cited from earlier work
# [20] = test system: PI5P4Kα; set-up: method as in MedChemExpress [1]; conditions: ref MedChemExpress [1], cited from earlier work
# [21] = target: Acyl-coenzyme A: cholesterol acyltransferase (ACAT); set-up: method as in MedChemExpress [1]; conditions: rat liver microsomal ACAT; ref MedChemExpress [1]; cited from earlier work
# [22] = test system: FLT3 D835Y; set-up: method as in MedChemExpress [1][2][3]; conditions: ref MedChemExpress [1][2][3]; cited from earlier work
# [23] = test system: FLT3 WT; set-up: method as in MedChemExpress [1][2][3]; conditions: ref MedChemExpress [1][2][3]; cited from earlier work
# [24] = test system: FLT3 internal tandem duplication (ITD); set-up: method as in MedChemExpress [1][2][3]; conditions: ref MedChemExpress [1][2][3]; cited from earlier work
# [25] = test system: NO production; set-up: method as in MedChemExpress; conditions: ref MedChemExpress; cited from earlier work
# [26] = DMSO; ultrasonic/warming; ref MedChemExpress; cited from earlier work
# [27] = set-up: method as in MedChemExpress [1]; conditions: ref MedChemExpress [1]; read-out: IC50 DPPH radical scavenging; cited from earlier work
# [28] = set-up: method as in MedChemExpress [1]; conditions: ref MedChemExpress [1]; read-out: IC50 superoxide anion scavenging; cited from earlier work
# [29] = target: phosphodiesterase 5 (PDE5); set-up: method as in MedChemExpress; conditions: ref MedChemExpress; cited from earlier work
# [30] = target: phosphodiesterase 4 (PDE4); set-up: method as in MedChemExpress; conditions: ref MedChemExpress; cited from earlier work
# [31] = target: phosphodiesterase 3 (PDE3); set-up: method as in MedChemExpress; conditions: ref MedChemExpress; cited from earlier work
# [32] = test system: H+/K+-ATPases; set-up: method as in MedChemExpress [1]; conditions: porcine, canine, and human, in vitro; ref MedChemExpress [1]; cited from earlier work
# [33] = test system: Cdc25C; set-up: method as in MedChemExpress [1]; conditions: ref MedChemExpress [1]; cited from earlier work
# [34] = test system: Cdc25A; set-up: method as in MedChemExpress [1]; conditions: ref MedChemExpress [1]; cited from earlier work
# [35] = test system: Cdc25B; set-up: method as in MedChemExpress [1]; conditions: ref MedChemExpress [1]; cited from earlier work
# [36] = test system: ERβ; set-up: method as in MedChemExpress; conditions: ref MedChemExpress; read-out: IC50, binding to ERβ; cited from earlier work
# [37] = test system: EGFR; set-up: method as in MedChemExpress; conditions: ref MedChemExpress; cited from earlier work
# [38] = sheet HTS hits, MedChemExpress library
# [39] = HTS hits, normalized value (npi)
# [40] = HTS hits, normalised value of 1-D Distance
# T1 sequence (Q8N999 whole entry): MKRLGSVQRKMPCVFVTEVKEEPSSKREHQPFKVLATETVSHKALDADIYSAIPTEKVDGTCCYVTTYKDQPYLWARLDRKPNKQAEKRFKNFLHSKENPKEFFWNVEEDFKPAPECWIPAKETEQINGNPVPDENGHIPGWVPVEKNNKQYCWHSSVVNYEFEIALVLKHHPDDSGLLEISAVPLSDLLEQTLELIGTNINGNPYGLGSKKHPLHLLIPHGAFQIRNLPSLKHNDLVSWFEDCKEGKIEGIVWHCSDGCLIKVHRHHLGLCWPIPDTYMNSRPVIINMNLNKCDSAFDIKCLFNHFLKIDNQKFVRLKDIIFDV
Molecule,"1-D Distance.npi [1, 38]",1-D Distance ([1]; sheet HTS hits),Raw data [w Enyzm] ([1]; sheet HTS hits),Raw data [w/o Enzym] ([1]; sheet HTS hits),"solubility, DMSO [6]",1-D Distance ([1]; HTS hits),Raw data [w Enyzm] ([1]; HTS hits),Raw data [w/o Enzym] ([1]; HTS hits),other results
CN1CCc2nc(C(=O)N[C@@H]3C[C@@H](C(=O)N(C)C)CC[C@@H]3NC(=O)C(=O)Nc3ccc(Cl)cn3)sc2C1.Cc1ccc(S(=O)(=O)O)cc1.O [Edoxaban (tosylate monohydrate)],77.5766,1653,9167,–,–,–,–,–,Ki [2]: 41700 nM
COc1ccc(-c2coc3cc(O)cc(O)c3c2=O)cc1 [Biochanin A],79.7493,1536,8945,10481,DMSO : ≥ 50 mg/mL (175.90 mM),–,–,–,IC50 [3]: 1800 nM; IC50 [4]: 1400 nM; IC50 [5]: 2400 nM
C/C(=N\N=C(N)N)c1cc(NC(=O)CCCCCCCCC(=O)Nc2cc(/C(C)=N/N=C(N)N)cc(/C(C)=N/N=C(N)N)c2)cc(/C(C)=N/N=C(N)N)c1.Cl.Cl.Cl.Cl [Semapimod (tetrahydrochloride)],101.371,217,4067,3850,–,–,–,–,IC50 [7]: ~300 nM
Indirubin Derivative E804,87.7994,1070,1875,2945,–,–,–,–,IC50 [8]: 650 nM
Sodium metatungstate,–,–,–,–,–,673,16164,15491,"Ki [9]: 28800 nM; 1-D Distance.npi [1, 39]: 95.6511; Ki [10]: 2580 nM; Ki [11]: 3260 nM"
CCCCCCCCCCCCCCCC[N+](C)(C)CCN(Cc1ccc(OC)cc1)c1ncccn1.[Br-] [Thonzonium (bromide)],–,–,–,–,–,365,4968,4603,"1-D Distance.npi [1, 40]: 101.053; EC50 [12]: 69000 nM"
Cn1nc(-c2ccccc2)nc2c(=O)n(C)c(=O)nc1-2 [3-Phenyltoxoflavin],–,–,–,–,–,2083,15668,17751,"Kd [13]: 585 nM; 1-D Distance.npi [1, 39]: 71.558"
Cc1cc(NCCCN(C)C)c2ccc3c(ccc4c(NCCCN(C)C)cc(C)nc43)c2n1.Cl.Cl.Cl.Cl [FGI-106 (tetrahydrochloride)],–,–,–,–,–,429,7836,8265,"EC50 [14]: 400 to 900 nM; 1-D Distance.npi [1, 39]: 96.4905; EC50 [15]: 800 nM; EC50 [16]: 150 nM; EC50 [17]: 100 nM; EC50 [18]: 200 nM"
COc1cc2c(NCC3CCN(C)CC3)cc(-c3ccc(C)o3)nc2cc1OCCCN1CCCC1.Cl.Cl.Cl [CM-579 trihydrochloride],80.8725,1286,6218,7504,–,–,–,–,IC50 [19]: […]
CN(C)C/C=C/C(=O)Nc1ccc(C(=O)Nc2cccc(Nc3cc(-c4c[nH]c5ccccc45)ncn3)c2)cc1 [THZ-P1-2],94.2865,656,5306,4650,–,–,–,–,IC50 [20]: 190 nM
CC(C)=CCc1cc([C@@H]2CC(=O)c3ccc(O)c(CC=C(C)C)c3O2)ccc1O [Glabrol],–,1660,8836,10496,DMSO : 100 mg/mL (254.78 mM; Need ultrasonic),–,–,–,IC50 [21]: 24600 nM
Cc1ccc2c(-c3nc(Nc4cc(CN5C[C@@H](C)N[C@@H](C)C5)cc(C5CC5)c4)ncc3Cl)c[nH]c2c1 [HM43239],–,834,6467,5633,DMSO : 125 mg/mL (249.47 mM; Need ultrasonic),–,–,–,IC50 [22]: […]; IC50 [23]: […]; IC50 [24]: 1.8 nM
CC(/C=C/C=C(\C)C(=O)O[C@@H]1O[C@H](CO)[C@@H](O)[C@H](O)[C@H]1O)=C\C=C\C=C(C)\C=C\C=C(/C)C(=O)O[C@@H]1O[C@H](CO[C@@H]2O[C@H](CO)[C@@H](O)[C@H](O)[C@H]2O)[C@@H](O)[C@H](O)[C@H]1O [Crocin II],–,–,–,–,–,1772,3357,5129,"1-D Distance.npi [1, 40]: 72.9439; IC50 [25]: 31100 nM; solubility, DMSO [26]: 25 mg/mL and 30.68 mM"
O=C1O[C@@H]2[C@@H](O)[C@H](O)[C@@H](CO)O[C@H]2c2c1cc(O)c(O)c2O [Norbergenin],–,1829,9099,10928,DMSO : 125 mg/mL (397.79 mM; Need ultrasonic),–,–,–,IC50 [27]: 13000 nM; IC50 [28]: 32000 nM
Cl.O=C1NCC2(CCN(CCc3ccccc3)CC2)O1 [Fenspiride (hydrochloride)],–,–,–,–,–,1963,8551,10514,"-log IC50, PDE5 [29]: ~3.8; 1-D Distance.npi [1, 40]: 70.4519; -log IC50, PDE4 [30]: 4.16; -log IC50, PDE3 [31]: 3.44"
Cc1nc2cc(C(=O)N(C)C)cc(O[C@H]3CCOc4cc(F)cc(F)c43)c2[nH]1 [Tegoprazan],–,1843,8992,10835,DMSO : 100 mg/mL (258.14 mM; Need ultrasonic),–,–,–,IC50 [32]: 290 to 520 nM
Cc1ccc(Cn2cc(CNC3=C(Cl)C(=O)c4cccnc4C3=O)nn2)cc1 [M2N12],96.6155,465,6859,7324,DMSO : 11.11 mg/mL (28.21 mM; ultrasonic and warming and heat to 67°C),–,–,–,IC50 [33]: 90 nM; IC50 [34]: 530 nM; IC50 [35]: 1390 nM
COc1cc(/C=C(\C#N)C(=O)c2ccc(O)c(O)c2)cc(I)c1O [I-OMe-Tyrphostin AG 538],98.3407,515,1659,2174,–,–,–,–,IC50 ([20]; ATP-competitive): 1000 nM
OC[C@H]1O[C@@H](Oc2cc3c(O)cc(O)cc3[o+]c2-c2cc(O)c(O)c(O)c2)[C@H](O)[C@@H](O)[C@@H]1O.[Cl-] [Delphinidin 3-glucoside (chloride)],–,–,–,–,–,1749,3316,5065,"1-D Distance.npi [1, 40]: 73.356; IC50 [36]: 9700 nM; IC50 [37]: 2370 nM"
